Here are results for 31 molecules from PubChem BioAssay AID588712 (The Scripps Research Institute Molecular Screening Center, 2011).

Each structure is given as a SMILES string. Where “and” joins values, the source holds several entries; their conditions need not be identical. Equal values may be shown once. Calls of active or inactive are those of the source. The rule behind the calls is not given here.

The assay concerns the target Insulin-degrading enzyme (Homo sapiens) (UniProt P14735). In words: inhibitors of cellular IDE activity, late-stage follow-up, cell-based, fluorescence polarization (AID 588712). For orientation: In fluorescence polarisation assays a small probe gives low polarisation when free and higher when bound to something large.

Insulin-degrading enzyme (Homo sapiens), sequence (P14735 whole entry, looked up): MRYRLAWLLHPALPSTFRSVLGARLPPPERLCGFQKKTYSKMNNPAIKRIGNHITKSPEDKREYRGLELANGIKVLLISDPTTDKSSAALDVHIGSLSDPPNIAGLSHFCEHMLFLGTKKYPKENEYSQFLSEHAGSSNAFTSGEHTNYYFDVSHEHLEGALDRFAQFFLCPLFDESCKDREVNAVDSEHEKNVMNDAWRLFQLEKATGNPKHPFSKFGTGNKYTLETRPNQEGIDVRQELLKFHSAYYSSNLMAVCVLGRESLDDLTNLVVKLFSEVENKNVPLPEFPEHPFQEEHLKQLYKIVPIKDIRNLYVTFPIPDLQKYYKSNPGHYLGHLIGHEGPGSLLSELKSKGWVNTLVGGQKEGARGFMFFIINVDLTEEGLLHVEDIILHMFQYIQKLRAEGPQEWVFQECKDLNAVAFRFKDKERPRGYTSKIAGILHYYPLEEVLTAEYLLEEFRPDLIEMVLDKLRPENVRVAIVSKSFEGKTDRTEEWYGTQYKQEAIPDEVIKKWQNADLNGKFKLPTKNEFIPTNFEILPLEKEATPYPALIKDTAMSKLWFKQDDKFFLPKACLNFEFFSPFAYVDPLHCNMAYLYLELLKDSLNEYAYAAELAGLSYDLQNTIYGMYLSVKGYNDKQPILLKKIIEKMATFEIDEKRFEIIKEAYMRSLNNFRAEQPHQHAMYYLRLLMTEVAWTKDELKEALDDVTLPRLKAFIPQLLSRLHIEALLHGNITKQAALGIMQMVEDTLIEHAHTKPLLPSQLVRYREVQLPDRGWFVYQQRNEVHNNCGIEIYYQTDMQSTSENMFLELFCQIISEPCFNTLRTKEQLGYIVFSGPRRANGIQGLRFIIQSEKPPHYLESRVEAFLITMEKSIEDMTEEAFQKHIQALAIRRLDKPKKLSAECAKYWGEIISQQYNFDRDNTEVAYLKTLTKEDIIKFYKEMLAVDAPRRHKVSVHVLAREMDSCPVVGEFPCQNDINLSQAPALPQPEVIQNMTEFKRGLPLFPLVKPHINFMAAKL

What is called IC50 is the midpoint of a concentration-inhibition curve. As to `Cn1c(SCc2nc3ccccc3[nH]2)nnc1-c1cccc(Cl)c1`, the IC50 is > 54.7 µM (inactive).
With `Cc1ccc(-c2nc(C(=O)Nc3cccc(C(F)(F)F)c3)cs2)cc1`, the IC50 was > 54.7 µM (inactive).
As to `O=c1c2ccccc2sn1-c1cc(S(=O)(=O)N2CCOCC2)ccc1N1CCOCC1`, the IC50 is 2.17 µM.
For `Cc1ccc(C)c(N2C(=N)S/C(=C\c3ccc(-c4ccccc4C(=O)O)o3)C2=O)c1` the value was > 54.7 µM (inactive).
With `COc1cccc(-c2nnc(SCc3nc4ccccc4[nH]3)n2Cc2ccco2)c1`, the IC50 was 9.38 µM.
The figure for `O=C(C1CC1)N1CCN(c2ccnc3cc(Cl)ccc23)CC1` is > 54.7 µM (inactive); for `Cc1nc(-c2cccnc2)sc1C(=O)Nc1cccc(C(F)(F)F)c1` it is > 54.7 µM (inactive).
For `Cc1cccc(-c2nnc(SCc3nc4ccccc4[nH]3)n2Cc2ccco2)c1` the value was 9.21 µM and 8.91 µM; for `Cc1ccc(NC(=O)CSc2nnc(-c3cccc(Cl)c3)n2Cc2ccco2)c(C)c1`, > 54.7 µM (inactive).
`COc1ccc(-c2nc(C(=O)Nc3cccc(C(F)(F)F)c3)cs2)cc1`: the IC50 is > 54.7 µM (inactive).
The figure for `O=C(CSc1nnc(-c2cccc(Cl)c2)n1Cc1ccco1)c1ccc2ccccc2c1` is > 54.7 µM (inactive); for `O=C(Nc1ccc2oc(-c3cccnc3)nc2c1)c1ccc2c(c1)OCCO2` it is > 54.7 µM (inactive); for `CCOc1ccc2[nH]c3c(N4CCN(C(=O)c5ccco5)CC4)ncnc3c2c1` it is “inactive”.
For `Cc1c(CCC(=O)NCCCn2ccnc2)c(=O)oc2cc3oc4c(c3cc12)CCCC4` the value was 7.32 µM; for `O=C(Nc1cccc(C(F)(F)F)c1)c1csc(-c2ccncc2)n1`, 5.74 µM.
The figure for `CC(Sc1nnc(-c2cccnc2)n1-c1ccccc1F)C(=O)N1CCCc2ccccc21` (stereo unspecified) is > 54.7 µM (inactive); for `Cn1c(=O)c(C(=O)CN2CCCc3ccccc32)c(N)n(Cc2ccccc2)c1=O` it is > 54.7 µM (inactive).
Consider `O=C(CSc1nnc(-c2cccc(Cl)c2)n1Cc1ccco1)Nc1ccccc1C(F)(F)F`, for which the IC50 was > 54.7 µM (inactive).
Turning to `COc1ccc(C(=O)N2CCN(C(=O)C3COc4ccccc4O3)CC2)cc1OC` (stereo unspecified), the IC50 was > 54.7 µM (inactive).
The entry for `COc1cc(/C=C2\SC(=S)N(NC(C)=O)C2=O)ccc1OC(=O)c1ccco1` is “inactive”.
The figure for `O=C(Nc1cccc(C(F)(F)F)c1)c1csc(-c2cccc(C(F)(F)F)c2)n1` is > 54.7 µM (inactive); for `O=C(Nc1cccc(C(F)(F)F)c1)c1csc(-c2ccccc2)n1` it is > 54.7 µM (inactive).
The figure for `O=C(CSc1nnc(-c2cccc(Cl)c2)n1Cc1ccco1)Nc1ccc2c(c1)OCCO2` is > 54.7 µM (inactive).
Turning to `CCN(CC)c1ccc(/C=C2\C(=N)N3N=C(CC(=O)N4CCOCC4)SC3=NC2=O)cc1`, the IC50 entry is “inactive”.
The figure for `Nc1c(C(=O)Nc2nccs2)sc2nc(-c3cccs3)cc(C(F)(F)F)c12` is > 54.7 µM (inactive).
Turning to `Clc1cccc(-c2nnc(SCc3nc4ccccc4[nH]3)n2-c2ccccc2)c1`, the IC50 is > 54.7 µM (inactive).
`O=C(Nc1cc(C(F)(F)F)cc(C(F)(F)F)c1)c1csc(-c2ccncc2)n1`: the IC50 is > 54.7 µM (inactive).
The figure for `O=C(CSc1nnc(-c2cccc(Cl)c2)n1Cc1ccco1)Nc1ccc2cn[nH]c2c1` is > 54.7 µM (inactive); for `Clc1cccc(-c2nnc(SCc3nc4ccccc4[nH]3)n2Cc2ccco2)c1` it is 3.09 µM.
For `COc1ccc(NC(=O)CSc2nnc(CN3CCOCC3)n2C)cc1Cl`, the IC50 was > 54.7 µM (inactive).
In the case of `O=C(Nc1cccc(C(F)(F)F)c1)c1csc(Cc2cccc(C(F)(F)F)c2)n1`, the IC50 was > 54.7 µM (inactive).
